This is an account of results in publication PMC4795541, “A Rapid and Quantitative Flow Cytometry Method for the Analysis of Membrane Disruptive Antimicrobial Activity” (PLoS ONE, 2016).

Common to all, as to test: MDC, flow cytometry Syto9/PI membrane disruption assay
Holding throughout (conditions): 90 min incubation, average of 3 assays ± SD
A general note: Flow cytometry measures light scatter and fluorescence of single cells or particles in a stream.

For one experiment, the system named is E. faecalis ATCC 29212. It counts as cell-based, Enterococcus faecalis. The text has this:
(§1) The bacterial strains; Fusobacterium nucleatum ATCC 25586, Streptococcus mutans Ingbritt, Staphylococcus aureus (MSSA) ATCC 29213; Staphylococcus aureus (MRSA) ATCC 43300; Enterococcus faecalis ATCC 29212; Enterobacter aerogenes ATCC 13048; Pseudomonas aeruginosa strain PAO1-LAC, ATCC 47085; Klebsiella pneumoniae ATCC 13883; Acinetobacter baumannii strain 2208, ATCC 19606; Escherichia coli ATCC 25922 lyophilised or glycerol stocks were obtained from the culture collection of the Oral Health Cooperative Research Centre, The Melbourne Dental School, University of Melbourne, Australia. These strains were selected for this study as they are widely used in antimicrobial studies and are considered to be important pathogens and major targets for antibiotic resistant studies. […] After overnight incubation, 0.5–2.0 mL of the starter culture was used to inoculate the appropriate fresh broth (200 mL) and growth monitored at 650 nm using a spectrophotometer (model 275E; Perkin-Elmer, Sydney, Australia) with culture purity checked by microscopic examination and culture. Bacteria were harvested during late exponential growth phase and viability and bacteria/mL determined using a BacLight viability kit (Invitrogen, Sydney, Australia) and a Quanta SC-MPL flow cytometer (Beckman coulter Pty, Ltd, Sydney, Australia). […]

The test system of the next experiment is E. coli ATCC 25922. It counts as cell-based, Escherichia coli.
Text: as §1

Another experiment has as its system K. pneumoniae ATCC 13883. It counts as cell-based, Klebsiella pneumoniae.
Text: as §1

Experiment [1] concerns P. aeruginosa strain PAO1-LAC, ATCC 47085. In kind it is cell-based, Pseudomonas aeruginosa.
Text: as §1

The test system of experiment [2] is S. aureus (MSSA) ATCC 29213. In kind it is cell-based, Staphylococcus aureus.
Text: as §1

In another experiment the test system is E. aerogenes ATCC 13048. In kind it is cell-based, Enterobacter aerogenes.
Text: as §1

Where a SMILES comes first, the peptide text is derived from it. [ ]: non-standard residue; d: D form. Phe(ol) = N[C@H](CO)Cc1ccccc1; Aib = CC(C)(N)C(=O)O

Take `CC(=O)NC(C)(C)C(=O)N1CCC[C@H]1C(=O)NC(C)(C)C(=O)N[C@@H](C)C(=O)NC(C)(C)C(=O)N[C@@H](C)C(=O)N[C@@H](CCC(N)=O)C(=O)NC(C)(C)C(=O)N[C@H](C(=O)NC(C)(C)C(=O)NCC(=O)N[C@@H](CC(C)C)C(=O)NC(C)(C)C(=O)N1CCC[C@H]1C(=O)N[C@H](C(=O)NC(C)(C)C(=O)NC(C)(C)C(=O)N[C@@H](CCC(=O)O)C(=O)N[C@@H](CCC(N)=O)C(=O)N[C@H](CO)Cc1ccccc1)C(C)C)C(C)C` [Alamethicin] (Ac-[Aib]P[Aib]A[Aib]AQ[Aib]V[Aib]GL[Aib]PV[Aib][Aib]EQ[Phe(ol)]; N-terminus assumed): the MDC in the experiment on E. faecalis ATCC 29212 was 48.4 ± 10.9 µM; in the experiment with E. coli ATCC 25922 it was over 250 µM; with K. pneumoniae ATCC 13883, over 250 µM; in experiment [1], over 250 µM; in experiment [2] it was 30.3 ± 8.2 µM; in the experiment on E. aerogenes ATCC 13048, over 250 µM.
